Results from ChEMBL document CHEMBL5634071, “Fluorine in anti-HIV drugs approved by FDA from 1981 to 2023” (Eur J Med Chem, 2023).

Columns and labels:
[1] = target: C-C chemokine receptor type 5 (Homo sapiens, UniProt P51681); experiment: Displacement of [125I]MIP-1alpha from CCR5 receptor (unknown origin) expressed in HEK293 cells; assay type: cell-based
[2] = test system: Human immunodeficiency virus; experiment: Antiviral activity agaisnt HIV BAL infected in human PM1 cells assessed as inhibition of viral replication; assay type: functional, organism-based; settings: Human immunodeficiency virus 1, BAL
hERG = hERG (Homo sapiens, UniProt Q12809); experiment: Inhibition of tritium labelled dofetilide binding to hERG expressed in HEK293 cells at 300 nM relative to control; assay type: toxicity, cell-based; settings: HEK293 cells that express hERG, probe tritium labelled dofetilide
[3] = test system: Human immunodeficiency virus 1; experiment: Antiviral activity against HIV-1 LAV infected in human CEM cells; assay type: functional, organism-based; settings: Human immunodeficiency virus 1, LAV, CCRF-CEM
[4] = Cytotoxicity against human CEM cells measured after 6 days; settings: CEM cells (CCRF-CEM)
[5] = Inhibition of HIV integrase; design: species or system Human immunodeficiency virus
Cytochrome P450 2D6 = Cytochrome P450 2D6 (Homo sapiens, UniProt P10635); experiment: Inhibition of CYP2D6 (unknown origin); assay type: ADME
[6] = target: Human immunodeficiency virus type 1 protease (Human immunodeficiency virus 1, UniProt Q72874); experiment: Inhibition of HIV-1 protease
[7] = test system: Human immunodeficiency virus 1; experiment: Antiviral activity against HIV-1 IIIB infected in human H9 cells; assay type: functional, organism-based; settings: Human immunodeficiency virus 1, IIIB
[8] = test system: Human immunodeficiency virus 1; experiment: Antiviral activity against HIV-1 infected in human PBMC; assay type: functional, organism-based; settings: Human immunodeficiency virus 1, PBMC
[9] = target: Human immunodeficiency virus type 1 Gag protein (Human immunodeficiency virus 1, UniProt Q77YG1); experiment: Binding affinity to HIV1 Gag assessed as dissociation constant
[10] = Metabolic stability in rhesus monkey hepatocytes assessed as half-life; assay type: ADME, cell-based, Macaca mulatta, Hepatocyte
[11] = test system: Human immunodeficiency virus; experiment: Antiviral activity against HIV IIIB infected in human MT4 cells; assay type: functional, organism-based; settings: Human immunodeficiency virus 1, IIIB
[12] = target: T1, DNA polymerase subunit gamma-1 (Homo sapiens) (UniProt P54098); experiment: Binding affinity to human DNA polymerase gamma assessed as polymerization rate
T1 sequence (whole entry): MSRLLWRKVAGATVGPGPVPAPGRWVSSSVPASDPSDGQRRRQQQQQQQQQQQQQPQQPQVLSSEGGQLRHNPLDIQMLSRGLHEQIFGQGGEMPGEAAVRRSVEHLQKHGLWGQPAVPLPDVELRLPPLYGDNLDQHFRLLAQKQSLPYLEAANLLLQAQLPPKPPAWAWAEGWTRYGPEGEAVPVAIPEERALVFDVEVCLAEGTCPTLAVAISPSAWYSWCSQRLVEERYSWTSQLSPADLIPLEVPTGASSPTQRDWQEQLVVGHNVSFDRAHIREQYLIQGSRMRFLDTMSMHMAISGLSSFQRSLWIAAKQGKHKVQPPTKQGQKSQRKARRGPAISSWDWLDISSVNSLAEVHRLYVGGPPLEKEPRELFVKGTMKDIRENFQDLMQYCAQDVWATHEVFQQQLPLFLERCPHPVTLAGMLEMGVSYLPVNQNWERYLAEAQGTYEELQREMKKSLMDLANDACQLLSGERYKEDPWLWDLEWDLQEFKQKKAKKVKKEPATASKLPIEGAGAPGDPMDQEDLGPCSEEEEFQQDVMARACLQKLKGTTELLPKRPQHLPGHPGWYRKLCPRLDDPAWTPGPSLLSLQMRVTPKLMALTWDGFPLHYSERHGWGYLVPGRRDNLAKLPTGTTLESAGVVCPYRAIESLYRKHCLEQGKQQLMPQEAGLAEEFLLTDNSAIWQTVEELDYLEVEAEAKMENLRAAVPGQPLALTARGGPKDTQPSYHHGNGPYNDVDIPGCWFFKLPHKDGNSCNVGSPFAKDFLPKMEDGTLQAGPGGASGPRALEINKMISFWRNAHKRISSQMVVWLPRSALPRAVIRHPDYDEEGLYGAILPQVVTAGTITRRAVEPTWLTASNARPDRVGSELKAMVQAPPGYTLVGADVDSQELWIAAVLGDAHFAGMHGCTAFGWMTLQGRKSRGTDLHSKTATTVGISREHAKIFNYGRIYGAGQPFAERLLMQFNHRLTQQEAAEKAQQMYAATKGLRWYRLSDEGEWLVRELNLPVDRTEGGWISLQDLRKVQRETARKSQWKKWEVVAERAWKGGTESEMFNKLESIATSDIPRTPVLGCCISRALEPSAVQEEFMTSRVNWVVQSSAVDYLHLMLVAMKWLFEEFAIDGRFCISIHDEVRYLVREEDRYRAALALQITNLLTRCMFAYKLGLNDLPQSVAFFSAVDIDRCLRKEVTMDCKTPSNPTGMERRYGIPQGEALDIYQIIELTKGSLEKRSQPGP

[13] = target: T2, DNA polymerase subunit gamma-1 (Homo sapiens, UniProt P54098); experiment: Binding affinity to human DNA polymerase gamma assessed as dissociation constant
T2 sequence (P54098 whole entry): T1 sequence (whole entry)

[14] = target: T1, DNA polymerase subunit gamma-1 (Homo sapiens); experiment: Ratio of K for biding affinity to human DNA polymerase gamma assessed as polymerization rate to Kd for binding affinity to human DNA polymerase gamma
[15] = test system: Human immunodeficiency virus 1; experiment: Antiviral activity against HIV-1 NL4-3 infected in human MT4 cells assessed as reduction in virus induced cytopathic effect by XTT assay; assay type: functional, organism-based; settings: Human immunodeficiency virus 1, NL4-3, MT4
[16] = test system: Human immunodeficiency virus 1; experiment: Antiviral activity against NNRTI-resistant HIV-1 harboring K103N mutant assessed as inhibition of viral growth; assay type: functional
[17] = test system: Human immunodeficiency virus 1; experiment: Antiviral activity against NNRTI-resistant HIV-1 harboring Y181C mutant assessed as inhibition of viral growth; assay type: functional
[18] = test system: Human immunodeficiency virus 1; experiment: Antiviral activity against NNRTI-resistant HIV-1 harboring K103N/Y181C double mutant assessed as inhibition of viral growth; assay type: functional
[19] = test system: Human immunodeficiency virus 1; experiment: Antiviral activity against HIV-1 infected in PBMC (unknown origin) assessed as inhibition of viral replication by ELISA; assay type: functional, organism-based; settings: Human immunodeficiency virus 1, PBMC
[20] = test system: Human immunodeficiency virus; experiment: Antiviral activity against HIV; assay type: functional, organism-based; settings: Human immunodeficiency virus 1
[21] = Cytotoxicity against human CEM cells; assay type: toxicity, cell-based; settings: CEM cells (CCRF-CEM)
[22] = Inhibition of wildtype HIV Reverse transcriptase; design: species or system Human immunodeficiency virus
[23] = test system: Human immunodeficiency virus 1; experiment: Antiviral activity against HIV-1 RF infected in human MT4 cells assessed as reduction in viral RNA production measured after 3 days by plaque assay; assay type: functional; settings: Human immunodeficiency virus 1, RF, MT4, 72 h; time 3 day
[24] = Half-life in human administered as single dose; assay type: ADME

C-C chemokine receptor type 5, sequence (P51681 whole entry): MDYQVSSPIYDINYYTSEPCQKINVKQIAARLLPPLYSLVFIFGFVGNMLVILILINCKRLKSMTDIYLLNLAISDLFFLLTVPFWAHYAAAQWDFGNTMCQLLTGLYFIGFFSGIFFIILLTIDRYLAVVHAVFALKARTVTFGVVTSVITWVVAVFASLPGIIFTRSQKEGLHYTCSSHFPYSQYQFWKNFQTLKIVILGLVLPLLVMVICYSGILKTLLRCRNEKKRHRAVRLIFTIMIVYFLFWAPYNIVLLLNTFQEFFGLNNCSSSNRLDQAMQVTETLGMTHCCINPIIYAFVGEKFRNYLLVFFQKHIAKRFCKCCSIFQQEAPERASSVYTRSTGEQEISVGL
hERG, sequence (Q12809 whole entry): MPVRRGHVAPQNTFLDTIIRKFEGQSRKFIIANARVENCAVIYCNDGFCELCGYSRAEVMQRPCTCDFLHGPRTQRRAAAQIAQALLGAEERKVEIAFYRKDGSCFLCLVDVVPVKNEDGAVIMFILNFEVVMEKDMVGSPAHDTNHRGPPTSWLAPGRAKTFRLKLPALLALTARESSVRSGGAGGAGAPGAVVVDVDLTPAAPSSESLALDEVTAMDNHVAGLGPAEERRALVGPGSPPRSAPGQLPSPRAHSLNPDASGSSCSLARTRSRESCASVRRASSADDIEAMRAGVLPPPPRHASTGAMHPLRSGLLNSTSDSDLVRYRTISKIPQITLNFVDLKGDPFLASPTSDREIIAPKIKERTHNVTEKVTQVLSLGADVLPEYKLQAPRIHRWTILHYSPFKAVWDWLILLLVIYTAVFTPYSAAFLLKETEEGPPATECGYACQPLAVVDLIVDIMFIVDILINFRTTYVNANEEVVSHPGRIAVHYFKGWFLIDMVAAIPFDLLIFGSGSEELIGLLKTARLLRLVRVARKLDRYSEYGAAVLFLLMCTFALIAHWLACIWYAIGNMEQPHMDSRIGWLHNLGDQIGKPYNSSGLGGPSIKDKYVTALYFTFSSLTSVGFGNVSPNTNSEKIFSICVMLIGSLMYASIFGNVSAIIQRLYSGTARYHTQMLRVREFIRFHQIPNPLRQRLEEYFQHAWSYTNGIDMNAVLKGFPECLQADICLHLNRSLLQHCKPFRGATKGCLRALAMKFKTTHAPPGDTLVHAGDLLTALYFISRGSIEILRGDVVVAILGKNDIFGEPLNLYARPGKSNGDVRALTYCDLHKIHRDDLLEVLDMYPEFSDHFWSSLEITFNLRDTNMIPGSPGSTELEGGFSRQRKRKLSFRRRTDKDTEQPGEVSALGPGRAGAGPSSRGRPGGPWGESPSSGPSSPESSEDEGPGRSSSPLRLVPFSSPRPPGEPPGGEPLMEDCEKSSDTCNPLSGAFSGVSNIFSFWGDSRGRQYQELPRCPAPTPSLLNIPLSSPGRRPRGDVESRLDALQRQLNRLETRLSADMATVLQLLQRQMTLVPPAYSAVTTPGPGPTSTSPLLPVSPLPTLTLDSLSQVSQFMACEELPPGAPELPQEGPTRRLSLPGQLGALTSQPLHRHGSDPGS
Cytochrome P450 2D6, sequence (P10635 whole entry): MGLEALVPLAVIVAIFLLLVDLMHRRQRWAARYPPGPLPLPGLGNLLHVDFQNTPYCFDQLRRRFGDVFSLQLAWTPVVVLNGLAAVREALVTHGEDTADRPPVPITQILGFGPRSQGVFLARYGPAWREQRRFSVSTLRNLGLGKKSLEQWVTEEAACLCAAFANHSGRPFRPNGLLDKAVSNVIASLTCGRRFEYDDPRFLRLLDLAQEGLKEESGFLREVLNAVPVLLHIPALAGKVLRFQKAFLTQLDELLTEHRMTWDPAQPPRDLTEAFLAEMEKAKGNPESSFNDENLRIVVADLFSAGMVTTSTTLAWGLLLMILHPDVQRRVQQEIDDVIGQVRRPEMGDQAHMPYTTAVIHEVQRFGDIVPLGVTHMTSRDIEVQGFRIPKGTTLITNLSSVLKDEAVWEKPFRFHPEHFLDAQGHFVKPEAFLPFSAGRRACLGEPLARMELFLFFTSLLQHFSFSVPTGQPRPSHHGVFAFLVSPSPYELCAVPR

## Cc1nc2ccccc2n1C1CCN(CCC(NC(=O)c2ccccc2)c2ccccc2)CC1 (configuration not stated)
[1]
  IC50: 45 nM
[2]
  IC50: 210 nM

## Cc1nnc(C(C)C)n1C1CC2CCC(C1)N2CC[C@H](NC(=O)C1CCOCC1)c1ccccc1 (some centres not stated)
[2]
  IC90: 125 nM
hERG
  inhibition at 0.3 µM: 0%

## Cc1nnc(C(C)C)n1[C@H]1C[C@H]2CC[C@@H](C1)N2CC[C@H](NC(=O)C1CCC(F)(F)CC1)c1ccccc1 [MARAVIROC]
[2]
  IC90: 1 nM

## Nc1nc(=O)n([C@H]2CS[C@@H](CO)O2)cc1F
[3]
  IC50: 1400 nM
[4]
  CC50 at 144 h: > 100000 nM

## C[C@@H]1CCO[C@H]2Cn3cc(C(=O)NCc4ccc(F)cc4F)c(=O)c(O)c3C(=O)N12 [DOLUTEGRAVIR]
[5]
  IC50: 2.7 nM

## Cc1nc2ccccc2n1C1CCN(CC[C@H](NC(=O)c2ccccc2)c2ccccc2)CC1
[1]
  IC50: 13 nM

## Cc1nc2ccccc2n1C1CCN(CCC(c2ccccc2)c2ccccc2)CC1
[1]
  IC50: 4 nM
Cytochrome P450 2D6
  IC50: 710 nM

## CCC[C@]1(CCc2ccccc2)CC(O)=C([C@H](CC)c2cccc(NS(=O)(=O)c3ccc(C#N)cn3)c2)C(=O)O1
[6]
  Ki: 0.04 nM
[7]
  IC50: 110 nM
  IC90: 890 nM

## Cc1nc2cnccc2n1C1CCN(CCC(c2ccccc2)c2ccccc2)CC1
Cytochrome P450 2D6
  IC50: 40 nM

## CC(C)(C#Cc1ccc(-c2ccc(Cl)c3c(NS(=O)(=O)C4CC4)nn(CC(F)F)c23)c([C@H](Cc2cc(F)cc(F)c2)NC(=O)Cn2nc(C(F)(F)F)c3c2C(F)(F)[C@@H]2C[C@H]32)n1)S(C)(=O)=O
[8]
  IC50: 0.13 nM
[9]
  Kd: 2.4 nM
[10]
  half-life: 130 h

## O=C1Nc2ccc(Cl)cc2[C@@](C#Cc2ccccn2)(C2CC2)N1
[11]
  IC50: 12 nM

## Nc1ccn([C@H]2C[C@H](O)[C@@H](COP(=O)(O)OP(=O)(O)OP(=O)(O)O)O2)c(=O)n1 [DEOXYCYTIDINE TRIPHOSPHATE]
[12]
  K: 44 s⁻¹
[13]
  Kd: 1100 nM
[14]
  Ratio: 40 µM⁻¹ s⁻¹

## Cc1nnc(C(C)C)n1C1CC2CCC(C1)N2CC[C@H](NC(=O)C1CCCC1)c1ccccc1 (some centres not stated)
[2]
  IC90: 1.6 nM

## CN(C(=O)[C@@H](CCc1ccccc1)NC(=O)Cc1c[nH]c2ccccc12)c1ccccn1
[15]
  IC50: 4500 nM

## CCC[C@@]1(CCc2ccccc2)CC(O)=C([C@@H](CC)c2cccc(NS(=O)(=O)c3ccc(C#N)cn3)c2)C(=O)O1
[6]
  Ki: 0.1 nM
[7]
  IC50: 490 nM
  IC90: 1000 nM

## Cc1nnc(C(C)C)n1C1CC2CCC(C1)N2CC[C@H](NC(=O)CCC(F)(F)F)c1ccccc1 (some centres not stated)
[2]
  IC90: 14 nM

## Cn1c(Cn2ccc(C(F)(F)F)c(Oc3cc(Cl)cc(C#N)c3)c2=O)n[nH]c1=O [DORAVIRINE]
[16]
  IC95: 43 nM
[17]
  IC95: 27 nM
[18]
  IC95: 55 nM

## Cc1nnc(C(C)C)n1C1CC2CCC(C1)N2CC[C@H](NC(=O)C1CCC1)c1ccccc1 (some centres not stated)
[2]
  IC90: 8 nM

## Nc1nc(=O)n(C2CSC(CO)O2)cc1F (racemic) [EMTRICITABINE, (+/-)-]
[3]
  IC50: 80 nM
[4]
  CC50 at 144 h: > 100000 nM

## Cc1[nH]c2ccccc2c1CC(=O)N[C@@H](Cc1ccccc1)C(=O)N(C)c1ccccc1
[15]
  IC50: 570 nM

## CCC[C@]1(CCc2ccccc2)CC(O)=C([C@@H](CC)c2cccc(NS(=O)(=O)c3ccc(C#N)cn3)c2)C(=O)O1
[6]
  Ki: 0.12 nM
[7]
  IC50: > 1000 nM
  IC90: > 1000 nM

## Nc1ccn([C@@H]2CS[C@H](COP(=O)(O)OP(=O)(O)OP(=O)(O)O)O2)c(=O)n1 [LAMIVUDINE TRIPHOSPHATE]
[12]
  K: 0.13 s⁻¹
[13]
  Kd: 13000 nM
[14]
  Ratio: 0.01 µM⁻¹ s⁻¹

## O=c1[nH]cnc2c1ncn2[C@H]1CC[C@@H](CO)O1 [DIDANOSINE]
[19]
  IC50: 760 nM

## CCC(c1ccccc1)c1c(O)c2ccccc2oc1=O (configuration not stated) [PHENPROCOUMON]
[20]
  IC50: 100000 nM

## Nc1ccn([C@@H]2CS[C@H](CO)O2)c(=O)n1 [LAMIVUDINE]
[3]
  IC50: 70 nM
[21]
  CC50: > 100000 nM

## Cc1cc(C)c(-n2nnnc2SCC(=O)Nc2ccc(S(N)(=O)=O)cc2Cl)c(C)c1
[22]
  IC50: 4.1 nM

## Cc1nc2ccccc2n1C1CCN(CC[C@@H](NC(=O)c2ccccc2)c2ccccc2)CC1
[1]
  IC50: 580 nM

## Nc1ccn([C@H]2CSC(CO)O2)c(=O)n1 (mixture of isomers)
[3]
  IC50: 70 nM
[21]
  CC50: 52600 nM

## Nc1nc(=O)n([C@@H]2CS[C@H](COP(=O)(O)OP(=O)(O)OP(=O)(O)O)O2)cc1F [EMTRICITABINE 5'-TRIPHOSPHATE]
[12]
  K: < 8.6 10^-3/s
[13]
  Kd: 63000 nM
[14]
  Ratio: < 1.4 10^-4/µM/s

## O=C1Nc2ccc(Cl)cc2[C@@](C#CC2CC2)(C(F)(F)F)N1
[23]
  IC90: 2 nM

## O=C1Nc2ccc(Cl)cc2[C@@](/C=C/C2CC2)(C(F)(F)F)N1
[23]
  IC90: 2.1 nM

## Nc1ccn([C@H]2CC[C@@H](CO)O2)c(=O)n1 [ZALCITABINE]
[19]
  IC50: 11 nM

## O=C(/C=C(\O)c1nc[nH]n1)c1ccc(Cc2ccc(F)cc2)o1 [S-1360]
[5]
  IC50: 20 nM

## O=C1Nc2ccc(Cl)cc2[C@@](C#CC2CC2)(C(F)(F)F)O1 [EFAVIRENZ]
[24]
  half-life: < 52 h
[23]
  IC90: 1.7 nM

## O=C1Nc2ccc(Cl)cc2[C@](C#Cc2ccccn2)(C2CC2)N1
[11]
  IC50: 9300 nM

## NS(=O)(=O)c1ccc(NC(=O)COc2cccc(Oc3ccccc3)c2)c(Cl)c1
[22]
  IC50: 52 nM

## Cc1nc2ccccc2n1C1CCN(CC[C@H](NC(=O)C2CCC2)c2ccccc2)CC1
[2]
  IC50: 73 nM

## Nc1ccn([C@H]2CS[C@@H](CO)O2)c(=O)n1
[3]
  IC50: 100 nM
[21]
  CC50: 2700 nM

## Cc1nc2ccccc2n1C1C[C@H]2CC[C@@H](C1)N2CC[C@H](NC(=O)C1CCC1)c1ccccc1 (some centres not stated)
[2]
  IC90: 3 nM
hERG
  inhibition at 0.3 µM: 80%

## Cc1[nH]c2ccccc2c1CC(=O)N[C@@H](Cc1ccccc1)C(=O)N(C)c1ccccn1
[15]
  IC50: 800 nM

## Cc1cn([C@H]2C[C@H](N=[N+]=[N-])[C@@H](CO)O2)c(=O)[nH]c1=O [ZIDOVUDINE]
[19]
  IC50: 55 nM
